The record followed here is patent US10695319B2, “Glucose conjugates of triptolide, analogs and uses thereof” (The Johns Hopkins University, priority 2016, dated 2020).

Data set [1] in a line: Preliminary experiments on tolerable treatment dose. The class given is in vivo. To be noted: mice. The protocol: (§1) The in vivo antitumor activity of the glucose-triptolide conjugate G4 was determined using an established metastatic prostate cancer model (Reference 1). In this model, the luciferase-expressing prostate cancer line PC3/ML was injected into NOD/SCID/IL2rγ^null (NSG) mice through the tail vein. The metastasis of the injected prostate cancer cells into liver, kidney, lung and bone can be monitored in live animals by bioluminescent imaging (BLI). It was shown that this is a reliable model with reproducible liver metastasis and all animals succumb by Week 7 after injection of cells (or Week 4 after initiation of treatments). […] Three weeks after cell injection, each compound was given once daily by IP at those doses for a total of 4 weeks. The surviving animals were continuously monitored upon termination of compound administration.

In data set [2] the test system is luciferase-expressing prostate cancer line PC3/ML. Briefly: Metastatic prostate cancer model, bioluminescent imaging. The conditions noted are these: triptolide 0.2 mg/kg, G4 1 mg/kg. The class given is in vivo, NOD/SCID/IL2rγ^null (NSG) mice. The protocol:
FIG. 3. Effects of triptolide and glucose-triptolide conjugate G4 in a metastatic mouse prostate cancer model. The injected prostate cancer cells expressed luciferase, which was detected by imaging of live animals.
as §1

Consider `CC(C)[C@]12O[C@H]1[C@@H]1O[C@]13[C@]1(O[C@H]1C[C@H]1C4=C(CC[C@@]13C)C(=O)OC4)[C@@H]2O` [triptolide], for which, in data set [1], the tolerable treatment dose is 0.2 mg/kg. The “tumor after termination of compound administration” value in data set [2] (after 4 weeks of once daily IP, till end of experiment) was “tumors immediately returned”. Moreover, the “tumor cells at the end of Week 4 of treatment” value in data set [2] (once daily IP for 4 weeks, BLI) is reported as “undetectable tumor cells”.
